Measured values published in patent US5591758A, “Organic nitrates, processes for their preparation and their use in the treatment of cardiovascular diseases” (Laboratoires Hoechst, SA, priority 1991, dated 1997).
Where a name gives a salt, the structure may show the parent alone.

Experiments:
thoracic aorta = assay: Vasorelaxant effect on isolated vessels (rat thoracic aorta rings without endothelium, precontracted with noradrenalin); parameters: species or system Wistar rats; conditions: for Emax: Rattus norvegicus, maximum inhibition of noradrenalin effect, 10^-8 to 10^-4 M substance, read-out: Maximum Relaxation; for IC50: rat aorta, 10^-7 M noradrenalin contraction
Outline: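 Endothelium-denuded thoracic aorta rings from Wistar rats, held in Krebs-Ringer buffer (pH 7.4, 37 °C, 95% O2/5% CO2) under isometric tension and precontracted with 10^-7 M noradrenalin, received cumulative compound (10^-8 to 10^-4 M). Maximum relaxation given as percent; IC50 calculated when relaxation exceeded 50%.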

anesthetised pigs = assay: Haemodynamic effects on anesthetised pigs; type: in vivo, pigs ("German land" race)
Method: Haemodynamic effects of the compounds according to the invention on anesthetised pigs or dogs
Pigs are of "German land" race (20-26 kg) and are used after fasting overnight.
In the case of pigs, sedation, analgesia and anesthesia are induced by ketamine HCl (20 mg/kg i.m.), methonidate HCl (10 mg/kg i.m.), xylacine HCl (3 mg/kg i.m.) and sodium pentobarbitol (25-30 mg/kg as bolus i.v. or 0.16 mg/kg/min as i.v. perfusion).
The pigs or dogs are placed under artificial respiration in ambient air. Analysis of the blood gases (pO2, pCO2) is carried out at regular intervals and oxygen can be supplied via the respirator, if necessary.
The haemodynamic parameters recorded include the left ventricular pressure (LVP; Millar PC350 Tip catheter inserted via the carotid artery), systemic blood pressure (BPs, BPd; full catheter in a femoral artery), the end pressure of the left ventricular diastole (LVEDP), the ventricular contractility (LVPdp/dtmax) and the heart rate (HR).
The haemodynamic variables are recorded continuously for 1 to 3 hours, as a function of the period of action of the compound.
The effects of the compounds studied are shown as the absolute difference with respect to the base value (bv) measured before administration of the compounds and are shown in Table VII (a,b,c).
An antianginal activity is estimated by a fall in the BPs and the LVEDP (fall in venous return).

[1] = Stability in water (seen in optical rotation); type: physicochemical; conditions: water (c 0.6)
[2] = system: isolated pulmonary vessel; assay: Relaxant activity on blood vessels isolated from guinea pigs (pulmonary artery); conditions: Cavia porcellus; guinea pig pulmonary artery, K+ depolarised, Ca2+ contraction; read-out: IC50 (relaxation of 50%)
Method: Determination of the relaxant activity of the compounds according to the invention on blood vessels isolated from guinea pigs.
The pulmonary artery of male guinea pigs (350-500 g) is isolated and cut into spiral tracts (1 mm wide, 15 mm long). […] After having removed the calcium from the tissues (Tyrode without calcium and 0.2 mM EDTA), the tracts are depolarised in the presence of a concentrated solution of K^+ ions (40 mM), which is produced by replacing the NaCl by equimolar amounts of KCl, and a contraction of long duration is then induced by Ca^2+ ions (0.5 mM).
The compounds studied are then introduced into the organ cell in increasing concentrations.
Each compound is tested on at least four vessel spiral tracts.

Row | IC50 (thoracic aorta) [µM] | stability in water [1] | IC50 [2] [µM] | SMILES | Emax (thoracic aorta) [%] | BPs (min), period of action (anesthetised pigs; pigs, 3,0 mg/kg i.d.) [min] | BPs, difference to base value (anesthetised pigs; pigs, 3,0 mg/kg i.d.) [mmHg] | LVRDP (min), period of action (anesthetised pigs; pigs, 3,0 mg/kg i.d.) [min] | LVRDP, difference to base value (anesthetised pigs; pigs, 3,0 mg/kg i.d.) | BPs (min), period of action (anesthetised pigs; pigs, 10,0 mg/kg i.d.) [min] | BPs, difference to base value (anesthetised pigs; pigs, 10,0 mg/kg i.d.) [mmHg] | LVRDP (min), period of action (anesthetised pigs; pigs, 10,0 mg/kg i.d.) [min] | LVRDP, difference to base value (anesthetised pigs; pigs, 10,0 mg/kg i.d.) | BPs (min), period of action (anesthetised pigs; pigs, 1,0 mg/kg i.d.) [min] | BPs, difference to base value (anesthetised pigs; pigs, 1,0 mg/kg i.d.) [mmHg] | LVRDP (min), period of action (anesthetised pigs; pigs, 1,0 mg/kg i.d.) [min] | LVRDP, difference to base value (anesthetised pigs; pigs, 1,0 mg/kg i.d.) | BPs (min), period of action (anesthetised pigs; pigs, 10 mg/kg i.v.) [min] | BPs, difference to base value (anesthetised pigs; pigs, 10 mg/kg i.v.) [mmHg] | LVRDP (min), period of action (anesthetised pigs; pigs, 10 mg/kg i.v.) [min] | LVRDP, difference to base value (anesthetised pigs; pigs, 10 mg/kg i.v.)
1 | 15 | instability of the product in water |  | CC1(C)N[C@H](C(=O)N[C@H]2CO[C@H]3[C@@H]2OC[C@@H]3O[N+](=O)[O-])CS1 [Compound 32, 5-[[(2,2-Dimethyl-4-L-thiazolidinyl)carbonyl]amino]-5-deoxy-2-O-nitro-1,4:3,6-dianhydro-L-iditol monohydrochloride] | 100 | > 180 | -30 | > 180 | -4,0 mmHg |  |  |  |  |  |  |  |  |  |  |  | 
2 | 50 |  | 1 | O=C(N[C@H]1CO[C@H]2[C@@H]1OC[C@@H]2O[N+](=O)[O-])c1ccccc1SCc1ccccc1 [Compound 39] | 80 |  |  |  |  | > 90 | -5 | > 90 | -1,0 mmHg |  |  |  |  |  |  |  | 
3 | > 100 |  | 30 | NCC(=O)N[C@H]1CO[C@H]2[C@@H]1OC[C@@H]2O[N+](=O)[O-] [Compound 6, Glycine amide of 5-amino-5-deoxy-2-O-nitro-1,4:3,6-dianhydro-L-iditol monohydrochloride] | 45 |  |  |  |  |  |  |  |  | > 180 | -31 | > 180 | -4,0 mmHg |  |  |  | 
4 | 10 |  | 3 | O=C(O[C@H]1CO[C@H]2[C@@H]1OC[C@H]2O[N+](=O)[O-])c1ccccc1SCc1ccccc1 [Compound 22, 2-O-[2-[(Phenylmethyl)thio]benzoyl]-5-O-nitro-1,4:3,6-dianhydro-D-glucitol] | 100 |  |  |  |  |  |  |  |  |  |  |  |  | 5 | -73 | 5 | -2,0 mmHg
